Series [1] is described as follows: Cytotoxicity to VERO cells. In kind it is cell-based, African green monkey (Cercopithecus Aethiops). Conditions: African green monkey (Cercopithecus aethiops), IC50 (μM) Cytotoxicity VERO cells. How it is done: (§1) In vitro antiprotozoal activities, see Ismail, M. A., et al., J. Med. Chem. 46, 4761-4769 (2003), and cytotoxicity were measured following established protocols, see Balz, T., et al., EMBO J., 4, 1273-1277 (1985); Räz. B., et al., Acta Trop., 68:139-147 (1997); and Sperandeo, N. R. et al., Chem. Biochem., 4, 69-73 (2003). […] Other positive controls employed were melarsoprol (against T. brucei), chloroquine, and artemisinin (against P. falciparum), and podophyllotoxin (against VERO cells).

Series [2] concerns VERO cells. In words: Cytotoxicity to VERO cells. Conditions: for IC50: Table 1, read-out: IC50 (μM) Cytotoxicity VERO cells. In kind it is cell-based, African green monkey (Cercopithecus Aethiops). How it is done: as §1
The test system of series [3] is Plasmodium falciparum. In words: In vitro antiprotozoal activity against Plasmodium falciparum. Format: cell-based. Conditions: for IC50: Table 1, read-out: IC50 (μM) Plasmodium falciparum; for pIC50: read-out: antiplasmodial IC50 values (P. falciparum). The procedure:
as §1

Series [4] has as its system Trypanosoma brucei brucei. In words: In vitro antiprotozoal activity against Trypanosoma brucei brucei. Conditions: for IC50: Table 1, read-out: IC50 (μM) Trypanosoma brucei brucei; for pIC50: read-out: IC50 values against T. brucei brucei. In kind it is cell-based. The procedure: as §1
[5] abbreviates: Chlorocebus sabaeus, Vero, read-out: IC50 value against VERO cells.

Here are results for 20 compounds from patent publication US7951827B2, “Synthesis and antiprotozoal activity of dicationic 3,5-diphenylisoxazoles” (The University of North Carolina at Chapel Hill, priority 2005, dated 2011).

pIC50: −log10 of the molar value. Structures can show the parent of a compound that is named as a salt. Where two headings read alike, the source gives them in different places. A value given as a limit tells only on which side of the number the result lay.

One may read the IC50 as the midpoint of a concentration-inhibition curve. Broadly, the pIC50 is the IC50 on a negative log10 scale, so that one unit is a factor of ten. Take `CC(C)NC(=N)c1ccc(-c2cc(-c3ccc(C(=N)NC(C)C)cc3)on2)cc1.Cl.Cl` [Compound 4, 3,5-Bis[4-(N-isopropyl)amidinophenyl]isoxazole dihydrochloride]: the 50% inhibitory concentration (IC50) stood at 176 µM in series [1], 0.0066 µM in series [3] (Plasmodium falciparum) and 0.196 µM in series [4] (Trypanosoma brucei). For the same compound, in series [2], the “toxicity (VERO cells) in words” value is recorded as “very nontoxic”. In addition, the results for the negative-log IC50 (pIC50) in series [2] (setting [5]) and in series [3] (Plasmodium falciparum) were less than 4.00 and more than 8.10, respectively. The “selectivities against P. falciparum over T. brucei brucei” value in series [3] turned out to be 30 fold.
In the case of `COc1cc(C(=N)N)ccc1-c1cc(-c2ccc(C(=N)N)cc2)no1` [Compound 8, 5-(4-Amidino-2-methoxyphenyl)-3-(4-amidinophenyl)isoxazole dihydrochloride], the results for the IC50 in series [1], in series [3] (Plasmodium falciparum) and in series [4] (Trypanosoma brucei) were 122 µM, 0.006 µM and 0.0106 µM, respectively. Also, the pIC50 is less than 4.00 in series [2] (setting [5]) and more than 8.10 in series [3] (Plasmodium falciparum).
The term melting point denotes the temperature of the solid-liquid transition. For the compound `COc1cc(C(=N)N)ccc1-c1cc(-c2ccc(C(=N)N)cc2)on1.Cl.Cl` [Compound 11, 3-(4-Amidino-2-methoxyphenyl)-5-(4-amidinophenyl)isoxazole dihydrochloride], the melting point is 335 to 337 °C (dec.). The compound also gave an IC50 in series [1] of 92.6 µM. In series [2] (setting [5]), the pIC50 is less than 4.00. Moreover, the IC50 in series [3] (Plasmodium falciparum) was 0.0663 µM. In addition, in series [4] (Trypanosoma brucei), the 50% inhibitory concentration (IC50) came out at 0.0164 µM.
As for `COc1cc(C(=N)N)ccc1-c1cc(-c2ccc(C(=N)N)cc2OC)on1` [Compound 12, 3,5-Bis(4-amidino-2-methoxyphenyl)isoxazole dihydrochloride], the IC50 worked out at 84.8 µM in series [1], 0.0061 µM in series [3] (Plasmodium falciparum) and 0.013 µM in series [4] (Trypanosoma brucei). Also, the negative-log IC50 (pIC50) in series [2] (setting [5]) was less than 4.00; in series [3] (Plasmodium falciparum), more than 8.10.
`CC(C)NC(=N)c1ccc(-c2cc(-c3cccc(C(=N)NC(C)C)c3)no2)cc1.Cl.Cl` [Compound 14, 3-[3-(N-Isopropyl)amidinophenyl]-5-[4-(N-isopropyl)amidinophenyl]-isoxazole dihydrochloride] gave a melting point of more than 350 °C. This compound also returned an IC50 in series [1] of 187 µM. Moreover, the “toxicity (VERO cells) in words” value in series [2] is “very nontoxic”. For the same compound, the negative-log IC50 (pIC50) in series [2] (setting [5]) was less than 4.00. Besides, in series [3], the “selectivities against P. falciparum over T. brucei brucei” value turned out to be 45 fold. Also, in series [3] (Plasmodium falciparum), the 50% inhibitory concentration (IC50) was determined as 0.0106 µM and the pIC50 was 7.52 to 8.10. The 50% inhibitory concentration (IC50) in series [4] (Trypanosoma brucei) worked out at 0.488 µM.
With `c1cc(C2=NCCN2)cc(-c2cc(-c3ccc(C4=NCCN4)cc3)on2)c1` [Compound 15, 3-[3-(2-Imidazolinyl)phenyl]-5-[4-(2-imidazolinyl)phenyl]isoxazole dihydrochloride], the IC50 worked out at 65 µM in series [2], 0.0512 µM in series [3] and 1.55 µM in series [4].
`COc1cc(C(=N)N)ccc1-c1cc(-c2cccc(C(=N)N)c2)no1.Cl.Cl` [Compound 18, 5-(4-Amidino-2-methoxyphenyl)-3-(3-amidinophenyl)isoxazole dihydrochloride]: the melting point was 241 to 246 °C. Also, the half-maximal inhibitory concentration (IC50) in series [1] was 177 µM. For the same compound, the pIC50 in series [2] (setting [5]) was less than 4.00. In addition, the IC50 in series [3] (Plasmodium falciparum) worked out at 0.0035 µM. In series [4] (Trypanosoma brucei), the IC50 is 0.0065 µM and the pIC50 is 8.19.
`Cl.Cl.N=C(N)c1ccc(-c2cc(-c3cc(C(=N)N)ccc3[N+](=O)[O-])no2)cc1` [Compound 19, 3-(5-Amidino-2-nitrophenyl)-5-(4-amidinophenyl)isoxazole dihydrochloride] registered a melting point of 238 to 240 °C. The same compound returned a half-inhibitory concentration (IC50) in series [1] of 5.07 µM. In addition, in series [2], the “toxicity (VERO cells) in words” value is reported as “quite toxic”. For the same compound, the IC50 in series [3] (Plasmodium falciparum) amounted to 0.0021 µM. Further, in series [4] (Trypanosoma brucei), the 50% inhibitory concentration (IC50) worked out at 0.0512 µM.
With `COc1ccc(C(=N)N)cc1-c1cc(-c2ccc(C(=N)N)cc2)on1.Cl.Cl` [Compound 21, 3-(5-Amidino-2-methoxyphenyl)-5-(4-amidinophenyl)isoxazole dihydrochloride], the melting point lay within 272 to 275 °C. In series [1], this compound returned a 50% inhibitory concentration (IC50) of 213 µM. For the same compound, in series [2] (setting [5]), the negative-log IC50 (pIC50) was less than 4.00. Further, in series [3] (Plasmodium falciparum), the IC50 turned out to be 0.0026 µM. In addition, in series [4] (Trypanosoma brucei), the concentration for half-maximal inhibition (IC50) is 0.0118 µM.
Turning to `CC(C)NC(=N)c1ccc(-c2cc(-c3cccc(C(=N)NC(C)C)c3)on2)cc1.Cl.Cl` [Compound 23, 3-[4-(N-Isopropyl)amidinophenyl]-5-[3-(N-isopropyl)amidinophenyl]-isoxazole dihydrochloride], the melting point was 340 to 343 °C (dec.). The compound also had an IC50 in series [1] of 186 µM. In series [2], the “toxicity (VERO cells) in words” value is given as “very nontoxic”. For the same compound, the pIC50 in series [2] (setting [5]) is less than 4.00. The IC50 in series [3] (Plasmodium falciparum) was determined as 0.0347 µM. In series [4] (Trypanosoma brucei), the IC50 is 0.316 µM.
With `c1cc(C2=NCCN2)cc(-c2cc(-c3ccc(C4=NCCN4)cc3)no2)c1` [Compound 24, 3-[4-(2-Imidazolinyl)phenyl]-5-[3-(2-imidazolinyl)phenyl]isoxazole dihydrochloride], the IC50 in series [2] came to 30.2 µM; in series [3], 0.077 µM; in series [4] it was 0.974 µM.
For the compound `Cl.Cl.N=C(N)c1cccc(-c2cc(-c3ccc(C(=N)N)cc3[N+](=O)[O-])no2)c1` [Compound 27, 3-(4-Amidino-2-nitrophenyl)-5-(3-amidinophenyl)isoxazole dihydrochloride], the melting point is 236 °C (dec.). In series [1], this compound displayed an IC50 of 206 µM. The “toxicity (VERO cells) in words” value in series [2] is “low toxicity”. In series [2] (setting [5]), the pIC50 was less than 4.00. For the same compound, in series [3] (Plasmodium falciparum), the concentration for half-maximal inhibition (IC50) worked out at 0.0304 µM. For the same compound, the IC50 in series [4] (Trypanosoma brucei) stood at 0.0194 µM.
For the compound `COc1cc(C(=N)N)ccc1-c1cc(-c2cccc(C(=N)N)c2)on1.Cl.Cl` [Compound 29, 3-(4-Amidino-2-methoxyphenyl)-5-(3-amidinophenyl)isoxazole dihydrochloride], the melting point is 288 °C (dec.). In series [1], this compound registered an IC50 of 136 µM. Further, in series [2] (setting [5]), the pIC50 was less than 4.00. Besides, in series [3] (Plasmodium falciparum), the IC50 is 0.0089 µM and the pIC50 was 7.52 to 8.10. For the same compound, in series [4] (Trypanosoma brucei), the IC50 came to 0.0059 µM and the pIC50 was 8.05 to 8.46.
As for `COc1ccc(C(=N)N)cc1-c1cc(-c2ccc(C(=N)N)cc2[N+](=O)[O-])no1.Cl.Cl` [Compound 30, 5-(5-Amidino-2-methoxyphenyl)-3-(4-amidino-2-nitrophenyl)isoxazole dihydrochloride], the melting point was 260 °C (dec.). The compound further displayed an IC50 in series [1] of 116 µM. Besides, the pIC50 in series [2] (setting [5]) is less than 4.00. For the same compound, in series [3] (Plasmodium falciparum), the half-maximal inhibitory concentration (IC50) worked out at 0.0195 µM and the pIC50 was 7.52 to 8.10. For the same compound, the IC50 in series [4] (Trypanosoma brucei) turned out to be 0.0342 µM.
With `COc1cc(C(=N)N)ccc1-c1cc(-c2cc(C(=N)N)ccc2OC)on1.Cl.Cl` [Compound 31, 3-(4-Amidino-2-methoxyphenyl)-5-(5-amidino-2-methoxyphenyl)isoxazole dihydrochloride], the melting point is 330 °C (dec.). The IC50 in series [1] was 191 µM. For the same compound, in series [2] (setting [5]), the negative-log IC50 (pIC50) was less than 4.00. Moreover, in series [3] (Plasmodium falciparum), the half-maximal inhibitory concentration (IC50) came out at 0.0297 µM and the negative-log IC50 (pIC50) was 7.52 to 8.10. For the same compound, in series [4] (Trypanosoma brucei), the IC50 was determined as 0.0057 µM and the pIC50 is 8.05 to 8.46.
`Cl.Cl.N=C(N)c1cccc(-c2cc(-c3cccc(C(=N)N)c3)on2)c1` [Compound 32, 3,5-Bis(3-amidinophenyl)isoxazole dihydrochloride] displayed a melting point of 365 to 367 °C. The compound further had an IC50 in series [1] of 153 µM. In series [2], the “toxicity (VERO cells) in words” value is “low toxicity”. Moreover, the negative-log IC50 (pIC50) in series [2] (setting [5]) was less than 4.00. Also, in series [3] (Plasmodium falciparum), the half-inhibitory concentration (IC50) came out at 0.0092 µM and the pIC50 was 7.52 to 8.10. Further, in series [4] (Trypanosoma brucei), the IC50 stood at 0.029 µM and the pIC50 was 7.54.
On to `CC(C)NC(=N)c1cccc(-c2cc(-c3cccc(C(=N)NC(C)C)c3)on2)c1.Cl.Cl` [Compound 33, 3,5-Bis[3-(N-isopropyl)amidinophenyl]isoxazole dihydrochloride], for which the melting point was 260 °C (dec.). Moreover, in series [1], half-maximal inhibition (IC50) required 180 µM. Besides, the “toxicity (VERO cells) in words” value in series [2] is “very nontoxic”. In addition, the pIC50 in series [2] (setting [5]) was less than 4.00. Further, the half-inhibitory concentration (IC50) in series [3] (Plasmodium falciparum) stood at 0.0431 µM. For the same compound, in series [4] (Trypanosoma brucei), the IC50 was 4.98 µM.
Take `c1cc(C2=NCCN2)cc(-c2cc(-c3cccc(C4=NCCN4)c3)on2)c1` [Compound 34, 3,5-Bis[3-(2-imidazolinyl)phenyl]isoxazole dihydrochloride]: the 50% inhibitory concentration (IC50) in series [2] amounted to 26.2 µM; in series [3] it was 0.227 µM; in series [4], 18.5 µM.
Take `Cl.Cl.N=C(N)c1cccc(-c2cc(-c3cc(C(=N)N)ccc3Cl)on2)c1` [Compound 36, 5-(5-Amidino-2-chlorophenyl)-3-(3-amidinophenyl)isoxazole dihydrochloride]: the melting point is 347 °C (dec.). Besides, in series [1], the half-maximal inhibitory concentration (IC50) came out at 109 µM. Further, in series [2], the “toxicity (VERO cells) in words” value was “low toxicity”. Further, the negative-log IC50 (pIC50) in series [2] (setting [5]) was less than 4.00. Besides, in series [3] (Plasmodium falciparum), the half-maximal inhibitory concentration (IC50) amounted to 0.0163 µM and the pIC50 was 7.52 to 8.10. Moreover, the IC50 in series [4] (Trypanosoma brucei) was 0.0251 µM.
The compound `COc1ccc(C2=NCCN2)cc1-c1cc(-c2cc(C3=NCCN3)ccc2OC)on1` [Compound 43, 3,5-Bis[5-(2-imidazolinyl)-2-methoxyphenyl]isoxazole dihydrochloride] had a pIC50 in series [2] of 3.78. Moreover, the results for the 50% inhibitory concentration (IC50) in series [3] and in series [4] were 0.0114 µM and 0.0448 µM, respectively.
